In patent US7534769B2, “Compositions and methods for enhancing delivery of therapeutic agents to cells” (Canji, Inc., priority 1996, dated 2009):
Entries after “also recorded” stand apart in the source; their conditions may differ.

What was measured:
bladder = assay: Gene transfer activity of water-soluble Syn3 analogs in vivo, whole organ Xgal staining; set-up: species or system rat; settings: for gene transfer activity compared to controls: 1 mg/ml
Description: A concentration of 1 mg/ml was chosen for initial testing of both compounds.
The solution of A-TMA was prepared by dissoluting 10 mg of A-TMA into 10 ml Dulbecco's PBS. Glycerol was added to provide a final concentration of 10 mg/ml. All solutions were sterile filtered prior to use (0.2 μm Acrodisc syring filter). The virus (BGCG 70AAB) was diluted 1:10 into either this A-TMA solution, or into Dulbecco's PBS-glycerol prior to administration.
Ten mg of A-HCl was dissoluted into this buffer and sterile filtered prior to use (0.2 μm Acrodisc suring filter). The virus (BGCG 70AAB) was diluted 1:10 into this solution prior to administration. For comparison, the virus diluted into this buffer without A-HCl was also tested.
Female HSD rats were anesthetized using isofluorane. The rats were transuretherally catheterized into the bladder using PE50 tubing lubricated with K-Y jelly. A tie-off was installed on the external urethra to prevent back leakage. Urine, if any, was removed and the bladder was flushed with 0.5 ml PBS and emptied. rAd was diluted to the desired concentration (1:10) and instilled for 45 minutes. The dosing material was removed, noting the return volume. The bladder was flushed with 0.5 ml PBS and emptied. The tie-off and catheter were removed, and the animals were allowed to recover in cages.
After 48 hours, the animals were sacrificed and their bladders inflation fixed with 0.5 ml fixative for 1 hour. The bladders were then rinsed overnight and whole organ Xgal staining was conducted.

[1] = Solubility and dissolution behaviour; assay type: physicochemical
bladder epithelium [2] = assay: Effect of Big CHAP sources, purified Big CHAP and impurities on rAd-βgal gene transfer to bladder epithelium; assay type: in vivo, rat; settings: for rAd mediated gene transfer and expression: Big CHAP at 6 mg/ml; for epithelial gene expression: increasing concentrations of BC (Sigma), 20 mg/ml; for cystitis / bladder irritation: Impurity I; for gene transfer and expression: column chromatography purified BC, 30 mg/ml
Description: Alternate commercial sources of Big CHAP (BC) were tested for the ability to enhance rAd (recombinant adenovirus) mediated gene transfer and expression, essentially according to the method described above in Example 8.
The results are depicted in FIG. 17.
rAd-βgal was formulated in 30 mg/ml of the column chromatography purified material of both BCs and gene transfer to the bladder epithelium tested as described above.
Three impurities of BC (CALBIOCHEM®) were detected by TLC (FIG. 15) and isolated by column chromatography for gene transfer studies. Impurity I and a mixture of impurity II and impurity III were diluted in VPBS (0.6 mg/ml or 6 mg/ml) to test their efficiency in improving rAd mediated gene transfer to the bladder epithelium. […] Positive control formulation (BC, CALBIOCHEM®, upper panel, left), and the negative control formulations (BC—CALBIOCHEM®, column chromatography purified and BC—Sigma) were used at a concentration of 6 mg/ml (upper panel, right).
In this experiment, 10 mg/ml of BC (Sigma, FIG. 20 upper middle panel) was reconstituted with Impurity III (upper right panel), impurity II (lower left panel), or synthesized analog of impurity III (lower right panel). rAd-βgal, 1×10^11 PN/ml, was prepared in the spiked formulations and administered intravesically as described above.
Calbiochem Big CHAP was fractionated by column chromatography to obtain essentially pure impurities “1”, “2”, and “3” for biological testing as well as structural analysis.

bladder epithelium [3] = assay: rAd-βgal gene transfer to bladder epithelium in detergent formulations, Xgal staining score and gross pathology; settings: detergents at their critical micellization concentration
Description: rAd-βgal was formulated in different detergents at their critical micellization concentration to evaluate efficiency of gene transfer to the bladder epithelium. Female rats (about 200 g b/w, Harlan Sprague Dawley) were anesthetized with isoflurane and received a single intravesical administration of rAd-βgal (1×10^11 PN/ml) in different detergent formulations (see Table I). Before instillation, bladders were flushed with PBS and then emptied. rAd-βgal was then instilled in a volume of 0.5 ml. The instilled solution was retained in the bladder for 45 minutes. The bladders were then flushed with PBS, and the animals were permitted to recover from the procedure. 48 hours after administration, the rats were sacrificed, the bladders harvested, and fixed in formalin. After fixation, the bladders were opened longitudinally so that the urothelium was exposed to the chromogen (Xgal), that is converted to a blue color, if reporter gene (β-galactosidase) expression is present. The luminal epithelial surface of the whole bladder was photographed an blue staining scored: + (minimal staining), ++ (moderate staining), +++ intense staining covering the whole bladder epithelial surface.
Briefly, in anaesthetized female rats rAd-βgal (1×10^11 PN/ml) was administered into the bladder via an intravesical catheter. rAd-βgal was formulated in different concentrations of Big CHAP (CALBIOCHEM®). A volume of 0.5 ml was injected and remained instilled in the bladder for 45 minutes. The animals were sacrificed 48 hours later, the bladder fixed in 4% formalin/glutaraldehyde, opened longitudinally, and the β-galactosidase enzyme activity measured using Xgal substrate. The intensity of blue staining correlates with the βgal-transgene expression.
Effects of higher recombinant adenovirus concentrations were also tested. Briefly, in anaesthetized female rats different concentrations of rAd-βgal, formulated in 7 mM Big CHAP (CALBIOCHEM®) were administered into the bladder via an intravesical catheter. The animals were sacrificed 48 hours later, the bladder fixed in 4% formalin/glutaraldehyde, opened longitudinally, and Xgal stained.

## C[C@H](CCC(=O)NCCCN(CCCN)C(=O)CC[C@@H](C)[C@H]1CC[C@H]2[C@@H]3[C@H](O)C[C@@H]4C[C@H](O)CC[C@]4(C)[C@H]3C[C@H](O)[C@]12C)[C@H]1CC[C@H]2[C@@H]3[C@H](O)C[C@@H]4C[C@H](O)CC[C@]4(C)[C@H]3C[C@H](O)[C@]12C.Cl [A-HCl]
bladder
  gene transfer activity compared to controls: significantly above those levels obtained by controls
[1]
  solubility in saline: not completely soluble in saline
[1]; dissolution into dH2O
  pH of solution: 4.7

## C[C@H](CCC(=O)NCCCN(CCC[N+](C)(C)C)C(=O)CC[C@@H](C)[C@H]1CC[C@H]2[C@@H]3[C@H](O)C[C@@H]4C[C@H](O)CC[C@]4(C)[C@H]3C[C@H](O)[C@]12C)[C@H]1CC[C@H]2[C@@H]3[C@H](O)C[C@@H]4C[C@H](O)CC[C@]4(C)[C@H]3C[C@H](O)[C@]12C.[Cl-] [A-TMA]
bladder
  gene transfer activity compared to controls: significantly above those levels obtained by controls
bladder; individual animals, 1 mg/ml in PBS/1% Glycerol (A-TMA) or Buffer D (A-HCl)
  gene transfer activity: + +

## C[C@H](CCC(=O)N(CCCNC(=O)[C@H](O)[C@@H](O)[C@H](O)[C@H](O)CO)CCCNC(=O)[C@H](O)[C@@H](O)[C@H](O)[C@H](O)CO)[C@H]1CC[C@H]2[C@@H]3[C@H](O)C[C@@H]4C[C@H](O)CC[C@]4(C)[C@H]3C[C@H](O)[C@]12C [Big CHAP (Sigma), N,N,bis-(3-D-gluconamidopropyl)-cholamide]
Bladder epithelium [2]; 26 mg/ml
  gene transfer: found to enhance gene transfer
Bladder epithelium [2]; listed as BC—Sigma
  rAd mediated gene transfer and expression: did not markedly improve rAd mediated gene transfer
Bladder epithelium [2]; listed as Sigma Big CHAP
  rAd mediated gene transfer and expression: does not enhance gene transfer
Bladder epithelium [2]
  epithelial gene expression: enhanced gene transfer at higher concentrations
Bladder epithelium [2]; listed as Sigma BC
  epithelial gene expression: improved epithelial gene expression

## C[C@H](CCC(=O)N(CCCNC(=O)[C@H](O)[C@@H](O)[C@H](O)[C@H](O)CO)CCCNC(=O)[C@H](O)[C@@H](O)[C@H](O)[C@H](O)CO)[C@H]1CC[C@H]2[C@@H]3[C@H](O)C[C@@H]4C[C@H](O)CC[C@]4(C)[C@H]3C[C@H](O)[C@]12C [Big CHAP, N,N,bis-(3-D-gluconamidopropyl)-cholamide, reference compound]
[1]
  solubility in water / aqueous solutions (in words): highly water soluble

## C[C@H](CCC(=O)NCCC[N+](C)(C)CCCS(=O)(=O)[O-])[C@H]1CC[C@H]2[C@@H]3[C@H](O)C[C@@H]4C[C@H](O)CC[C@]4(C)[C@H]3C[C@H](O)[C@]12C.O [Chaps, 3-[(3-Cholamidopropyl)dimethylammoniol]-1-propanesulfonate hydrate, reference compound]
Bladder epithelium [3]
  gene transfer to the bladder epithelium (Table I): enhanced gene transfer dramatically

## COC(=O)CC[C@@H](C)[C@H]1CC[C@H]2[C@@H]3[C@H](O)C[C@@H]4C[C@H](O)CC[C@]4(C)[C@H]3C[C@H](O)[C@]12C [Impurity I]
Bladder epithelium [2]
  cystitis / bladder irritation: caused cystitis
Bladder epithelium [2]; listed as Impurity 1
  cystitis / bladder irritation: bladder irritation
Bladder epithelium [2]; impurities diluted in VPBS, 0.6 mg/ml or 6 mg/ml
  β-galactosidase gene expression in the bladder epithelium: did not lead to increased β-galactosidase gene expression

## C[C@H](CCC(=O)NCCS(=O)(=O)O)[C@H]1CC[C@H]2[C@@H]3CC[C@@H]4C[C@H](O)CC[C@]4(C)[C@H]3C[C@H](O)[C@]12C [Taurodeoxycholate, reference compound]
Bladder epithelium [3]
  gene transfer to the bladder epithelium (Table I): enhanced gene transfer dramatically

## CCCCCCCCCCCCCC[N+](C)(C)CCCS(=O)(=O)[O-] [Zwittergent ® 3-14, reference compound]
Bladder epithelium [3]
  gene transfer to the bladder epithelium (Table I): enhanced gene transfer dramatically

## C[C@H](CCC(=O)N(CCCNC(=O)[C@H](O)[C@@H](O)[C@H](O)[C@H](O)CO)CCCNC(=O)[C@H](O)[C@@H](O)[C@H](O)[C@H](O)CO)[C@H]1CC[C@H]2[C@@H]3[C@H](O)C[C@@H]4C[C@H](O)CC[C@]4(C)[C@H]3C[C@H](O)[C@]12C [purified Big CHAP (CALBIOCHEM®)]
Bladder epithelium [2]
  gene transfer and expression: only slightly enhanced; also recorded: reduced ability to enhance gene transfer

## C[C@H](CCC(=O)N(CCCNC(=O)[C@H](O)[C@@H](O)[C@H](O)[C@H](O)CO)CCCNC(=O)[C@H](O)[C@@H](O)[C@H](O)[C@H](O)CO)[C@H]1CC[C@H]2[C@@H]3[C@H](O)C[C@@H]4C[C@H](O)CC[C@]4(C)[C@H]3C[C@H](O)[C@]12C [purified Big CHAP (Sigma)]
Bladder epithelium [2]
  gene transfer and expression: reduced ability to enhance gene transfer
Bladder epithelium [2]; listed as purified Sigma BC
  gene transfer and expression: without any effect

## Pluronic F68 [reference compound]
Bladder epithelium [3]
  gene transfer to the bladder epithelium (Table I): did not have similar effects
